According to ChEMBL document CHEMBL5360559, “Machine learning- and structure-based discovery of a novel chemotype as FXR agonists for potential treatment of nonalcoholic fatty liver disease” (Eur J Med Chem, 2023):

Assays:
HepG2 [1] = test: Induction of dyslipidemia in human HepG2 cells assessed as downregulation of ApoA1 gene expression at 10 uM by qPCR analysis; assay type: toxicity, cell-based; conditions: hepg2, 10 µM
HepG2 [2] = test: Induction of dyslipidemia in human HepG2 cells assessed as downregulation of ApoC3 gene expression at 10 uM by qPCR analysis; assay type: toxicity, cell-based; conditions: hepg2, 10 µM

With CC[C@H]1[C@@H](O)[C@@H]2[C@H](CC[C@]3(C)[C@@H]([C@H](C)CCC(=O)O)CC[C@@H]23)[C@@]2(C)CC[C@@H](O)C[C@@H]12 [OBETICHOLIC ACID] the Activity (HepG2 [1]) was “Toxic” and the Activity (HepG2 [2]) was “Toxic”.
